Converted amounts (≈) assume the structure as drawn. Like-named read-outs stand apart in the source and are kept apart here.
Columns and labels:
Assay type in all cases: cell-based
E. cloacae 34654 = assay: MIC determination, broth microdilution (CLSI); conditions: for MIC: Enterobacter cloacae, 34654, strain 3
A. baumannii ATCC15308 = assay: MIC determination, broth microdilution (CLSI); conditions: for MIC: Acinetobacter baumannii, ATCC15308, strain 9
[1] = tested on: P. aeruginosa 2297-con (AmpC derepressed); assay: MIC determination, broth microdilution (CLSI); conditions: for MIC: Pseudomonas aeruginosa, read-out: strain 8 MIC, strain 8
E. coli J62 = assay: MIC determination, broth microdilution (CLSI); conditions: broth microdilution; for MIC: Escherichia coli, J62, strain 17, read-out: MIC strain 17 (E. coli J62)
M. morganii 126/3048 = assay: MIC determination, broth microdilution (CLSI); conditions: for MIC: Morganella morganii, 126/3048, strain 5
E. coli ATCC25922 = assay: MIC determination, broth microdilution (CLSI); conditions: for MIC: Escherichia coli, ATCC25922, strain 1
H. influenzae ATCC 49247 = assay: MIC determination, broth microdilution (CLSI); conditions: broth microdilution; for MIC: Haemophilus influenzae, ATCC49247, strain 12, read-out: MIC strain 12 (H. influenzae ATCC 49247)
P. aeruginosa PAO1 = assay: MIC determination, broth microdilution (CLSI); conditions: for MIC: Pseudomonas aeruginosa, PAO1, strain 6
S. maltophilia ICB7569 = assay: MIC determination, broth microdilution (CLSI); conditions: for MIC: Stenotrophomonas maltophilia, ICB7569, strain 10
B. fragilis 6688 = assay: MIC determination, broth microdilution (CLSI); conditions: broth microdilution; for MIC: Bacteroides fragilis, 6688, strain 15, read-out: MIC strain 15 (B. fragilis 6688)
S. aureus 133 = assay: MIC determination, broth microdilution (CLSI)
E. coli J62-TEM-3 = assay: MIC determination, broth microdilution (CLSI); conditions: broth microdilution; for MIC: Escherichia coli, J62TEM3, read-out: MIC strain 18 (E. coli J62-TEM-3), strain 18
C. perfringens DSM756 = assay: microbe, parasite or virus in culture; conditions: broth microdilution; for MIC: Clostridium perfringens, DSM756, read-out: MIC strain 16 (C. perfringens DSM756), strain 16
Bacteria = assay: MIC determination in combination with β-lactamase inhibitors (constant 4 μg/mL)
S. pneumoniae 113 = assay: MIC determination, broth microdilution (CLSI); conditions: broth microdilution; for MIC: Streptococcus pneumoniae, 113, strain 13, read-out: MIC strain 13 (S. pneumoniae 113)
[2] = tested on: P. aeruginosa 2297 (AmpC wt); assay: MIC determination, broth microdilution (CLSI); conditions: for MIC: Pseudomonas aeruginosa, strain 7
K. pneumoniae 60 = assay: MIC determination, broth microdilution (CLSI); conditions: for MIC: Klebsiella pneumoniae, 60, strain 2
C. freundii K21/3034 = assay: MIC determination, broth microdilution (CLSI); conditions: for MIC: Citrobacter freundii, K21/3034, strain 4
[3] = Staphylococcus aureus, 133, strain 11, read-out: strain 11 MIC
[4] = Staphylococcus aureus, 133, strain 14, broth microdilution, read-out: MIC strain 14 (S. aureus 133)

SMILES	strain 3 MIC (E. cloacae 34654) [µg/mL]	strain 9 MIC (A. baumannii ATCC15308) [µg/mL]	MIC strain 17 (E. coli J62) (E. coli J62) [µg/mL]	strain 5 MIC (M. morganii 126/3048) [µg/mL]	strain 1 MIC (E. coli ATCC25922)	MIC (B. fragilis 6688) [µg/mL]	MIC (S. aureus 133; [3]) [µg/mL]	MIC (E. coli J62-TEM-3) [µg/mL]	MIC (C. perfringens DSM756) [µg/mL]	MIC strain 19 (E. coli J62-TEM-3 + 4 μg/mL clavulanic acid) (Bacteria)	MIC strain 20 (E. coli J62-TEM-3 + 4 μg/mL sulbactam) (Bacteria)	MIC strain 21 (E. coli J62-TEM-3 + 4 μg/mL tazobactam) (Bacteria)	strain 2 MIC (K. pneumoniae 60)	strain 4 MIC (C. freundii K21/3034)	MIC (H. influenzae ATCC 49247) [µg/mL]	MIC strain 18 (E. coli J62-TEM-3) (E. coli J62-TEM-3) [µg/mL]	MIC (S. pneumoniae 113) [µg/mL]	MIC (E. coli J62) [µg/mL]	MIC (M. morganii 126/3048) [µg/mL]	MIC (S. maltophilia ICB7569) [µg/mL]	also measured
CC1(C)[C@H](NC(=O)/C(=N\OC(COc2ccc(C(=N)NCCN)cc2)C(=O)O)c2csc(N)n2)C(=O)N1OS(=O)(=O)O (mixture of isomers) [Example 44A, (2R and 2S)-3-{4-[N-(2-Aminoethyl)carbamimidoyl]phenoxy}-2-({[(1Z)-1-(2-amino-1,3-thiazol-4-yl)-2-{[(3S)-2,2-dimethyl-4-oxo-1-(sulfooxy)azetidin-3-yl]amino}-2-oxoethylidene]amino}oxy)propanoic acid]	0.125	2	0.125	0.125	≦0.063 mg/L	8	≤ 0.063	2	1	≦0.063 mg/L	≦0.063 mg/L	≦0.063 mg/L	≦0.063 mg/L	≦0.063 mg/L							strain 8 MIC [1]: 1 µg/mL; MIC strain 12 (H. influenzae ATCC 49247) (H. influenzae ATCC 49247): ≦0.063 mg/L; strain 6 MIC (P. aeruginosa PAO1): 1 µg/mL; strain 10 MIC (S. maltophilia ICB7569): 2 µg/mL; MIC (S. aureus 133; [4]): 32 µg/mL; MIC strain 13 (S. pneumoniae 113) (S. pneumoniae 113): 0.5 µg/mL; strain 7 MIC [2]: 2 µg/mL
CC1(C)[C@H](NC(=O)/C(=N\OC(CO)COc2ccc(C(=N)N)cc2)c2csc(N)n2)C(=O)N1OS(=O)(=O)O (mixture of isomers) [Example 45B, (2Z)-2-(2-Amino-1,3-thiazol-4-yl)-2-({[(2R and 2S)-1-(4-carbamimidoylphenoxy)-3-hydroxypropan-2-yl]oxy}imino)-N-[(3S)-2,2-dimethyl-4-oxo-1-(sulfooxy)azetidin-3-yl]ethanamide]	4	4	4	4	2 µg/mL	4	≤ 0.063		2	2 µg/mL	4 µg/mL	4 µg/mL	2 µg/mL	1 µg/mL	0.5	16	0.125				strain 8 MIC [1]: 32 µg/mL; strain 6 MIC (P. aeruginosa PAO1): 16 µg/mL; strain 10 MIC (S. maltophilia ICB7569): 32 µg/mL; MIC strain 14 (S. aureus 133) (S. aureus 133; broth microdilution): 16 µg/mL; strain 7 MIC [2]: 32 µg/mL
CC1(C)[C@H](NC(=O)/C(=N\OC(COc2ccc(C(=N)N)cc2)CC(=O)O)c2csc(N)n2)C(=O)N1OS(=O)(=O)O (mixture of isomers) [Example 46, 3-({[(1Z)-1-(2-Amino-1,3-thiazol-4-yl)-2-{[(3S)-2,2-dimethyl-4-oxo-1-(sulfooxy)azetidin-3-yl]amino}-2-oxoethylidene]amino}oxy)-4-(4-carbamimidoylphenoxy)butanoic acid]						32		16	4	1 µg/mL	1 µg/mL	1 µg/mL			0.25		1	2	1	8	MIC (E. cloacae 34654): 2 µg/mL; MIC (A. baumannii ATCC15308): 16 µg/mL; MIC [1]: 32 µg/mL; MIC (E. coli ATCC25922): 2 µg/mL; MIC (P. aeruginosa PAO1): 8 µg/mL; MIC [2]: 32 µg/mL; MIC (K. pneumoniae 60): 1 µg/mL; MIC (C. freundii K21/3034): 1 µg/mL
CC1(C)[C@H](NC(=O)/C(=N\OC(CCO)COc2ccc(C(=N)N)cc2)c2csc(N)n2)C(=O)N1OS(=O)(=O)O (single isomer, unassigned) [Example 81A]	16					16 (≈ 27.3 µM)			8 (≈ 13.7 µM)	8 µg/mL	8 µg/mL	8 µg/mL			2 (≈ 3.42 µM)	32 (≈ 54.6 µM)	0.25 (≈ 0.427 µM)	8 (≈ 13.7 µM)	8 (≈ 13.7 µM)	16 (≈ 27.3 µM)	MIC (A. baumannii ATCC15308): 8 µg/mL (≈ 13.7 µM); MIC (E. coli ATCC25922): 4 µg/mL (≈ 6.83 µM); MIC (S. aureus 133; [4]): 32 µg/mL (≈ 54.6 µM); MIC (K. pneumoniae 60): 8 µg/mL (≈ 13.7 µM); MIC (C. freundii K21/3034): 4 µg/mL (≈ 6.83 µM)
CC1(C)[C@H](NC(=O)/C(=N\OC(CCO)COc2ccc(C(=N)N)cc2)c2csc(N)n2)C(=O)N1OS(=O)(=O)O (single isomer, unassigned) [Example 81B]	4	8	4 (≈ 6.83 µM)	4	2 µg/mL					4 µg/mL	4 µg/mL	4 µg/mL	4 µg/mL	2 µg/mL		4 (≈ 6.83 µM)					MIC strain 12 (H. influenzae ATCC 49247) (H. influenzae ATCC 49247): 2 µg/mL (≈ 3.42 µM); strain 10 MIC (S. maltophilia ICB7569): 16 µg/mL; MIC strain 15 (B. fragilis 6688) (B. fragilis 6688): 16 µg/mL (≈ 27.3 µM); MIC strain 14 (S. aureus 133) (S. aureus 133; broth microdilution): 32 µg/mL (≈ 54.6 µM); MIC strain 16 (C. perfringens DSM756) (C. perfringens DSM756): 4 µg/mL (≈ 6.83 µM); MIC strain 13 (S. pneumoniae 113) (S. pneumoniae 113): 0.125 µg/mL (≈ 0.213 µM)
CC1(C)[C@H](NC(=O)/C(=N\OCC(Oc2ccc(C(=N)N)cc2)C(=O)O)c2csc(N)n2)C(=O)N1OS(=O)(=O)O (single isomer, unassigned) [Example 87B]	1	16	1 (≈ 1.71 µM)	0.25	0.5 µg/mL					0.5 µg/mL	1 µg/mL	2 µg/mL	0.5 µg/mL	0.5 µg/mL		32 (≈ 54.6 µM)				16 (≈ 27.3 µM)	MIC [1]: 32 µg/mL (≈ 54.6 µM); MIC strain 12 (H. influenzae ATCC 49247) (H. influenzae ATCC 49247): 0.125 µg/mL (≈ 0.213 µM); strain 6 MIC (P. aeruginosa PAO1): 16 µg/mL; MIC strain 15 (B. fragilis 6688) (B. fragilis 6688): 16 µg/mL (≈ 27.3 µM); strain 11 MIC (S. aureus 133; strain 11): ≦0.063 mg/L; MIC strain 16 (C. perfringens DSM756) (C. perfringens DSM756): 16 µg/mL (≈ 27.3 µM); MIC strain 13 (S. pneumoniae 113) (S. pneumoniae 113): 1 µg/mL (≈ 1.71 µM); MIC [2]: 32 µg/mL (≈ 54.6 µM)
CC1(C)[C@H](NC(=O)/C(=N\OCCOc2ccc(C(=N)N)cc2)c2csc(N)n2)C(=O)N1OCS(=O)(=O)O [Example 90]						4 (≈ 7.2 µM)	0.5 (≈ 0.9 µM)	0.5 (≈ 0.9 µM)	16 (≈ 28.8 µM)	0.5 µg/mL	0.5 µg/mL	1 µg/mL			0.5 (≈ 0.9 µM)		0.5 (≈ 0.9 µM)	1 (≈ 1.8 µM)	0.5 (≈ 0.9 µM)	4 (≈ 7.2 µM)	MIC (E. cloacae 34654): 1 µg/mL (≈ 1.8 µM); MIC [1]: 32 µg/mL (≈ 57.6 µM); MIC (E. coli ATCC25922): 0.5 µg/mL (≈ 0.9 µM); MIC (P. aeruginosa PAO1): 32 µg/mL (≈ 57.6 µM); MIC [2]: 32 µg/mL (≈ 57.6 µM); MIC (C. freundii K21/3034): 0.25 µg/mL (≈ 0.45 µM)
CC1(C)[C@H](NC(=O)/C(=N\O[C@@H](COc2ccc(C(=N)NCc3ncc[nH]3)cc2)C(=O)O)c2csc(N)n2)C(=O)N1OS(=O)(=O)O [Example 104, (2S)-2-({[(1Z)-1-(2-Amino-1,3-thiazol-4-yl)-2-{[(3S)-2,2-dimethyl-4-oxo-1-(sulfooxy)azetidin-3-yl]amino}-2-oxoethylidene]amino}oxy)-3-{4-[N-(1H-imidazol-2-ylmeth-yl)carbamimidoyl]phenoxy}propanoic acid]					1 µg/mL		≤ 0.063	32 (≈ 48.1 µM)	8 (≈ 12 µM)	1 µg/mL	1 µg/mL	1 µg/mL			≤ 0.063		1 (≈ 1.5 µM)	1 (≈ 1.5 µM)	0.5 (≈ 0.751 µM)	16 (≈ 24 µM)	MIC (E. cloacae 34654): 1 µg/mL (≈ 1.5 µM); MIC (P. aeruginosa PAO1): 16 µg/mL (≈ 24 µM); MIC (K. pneumoniae 60): 1 µg/mL (≈ 1.5 µM); MIC (C. freundii K21/3034): 1 µg/mL (≈ 1.5 µM)

Reference: US9556165B2 (priority 2012, dated 2017)
